Experiment [1] has as its target Leukotriene B4 receptor 1 (Homo sapiens, UniProt Q15722). The experiment is described as follows: In vitro inhibitory activity against human neutrophil leukotriene B4 (LTB4).
The target of experiment [2] is T1, Cysteinyl leukotriene receptor 1 (Cavia porcellus, UniProt Q2NNR5).
T1 sequence (Q2NNR5 whole entry): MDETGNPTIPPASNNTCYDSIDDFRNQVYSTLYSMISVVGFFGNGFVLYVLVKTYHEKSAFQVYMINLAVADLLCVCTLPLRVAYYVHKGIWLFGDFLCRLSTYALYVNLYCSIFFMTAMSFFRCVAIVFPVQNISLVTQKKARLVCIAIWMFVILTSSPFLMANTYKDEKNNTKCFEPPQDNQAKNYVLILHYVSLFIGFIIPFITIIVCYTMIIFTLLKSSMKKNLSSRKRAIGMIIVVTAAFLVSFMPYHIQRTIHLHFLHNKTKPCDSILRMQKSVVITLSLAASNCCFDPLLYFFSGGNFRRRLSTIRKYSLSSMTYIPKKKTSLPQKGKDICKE
Description: In vitro inhibitory activity against leukotriene D4 receptor.

In experiment [3] the target is T1, Cysteinyl leukotriene receptor 1. The experiment is described as follows: In vitro inhibitory activity against human leukotriene D4 (LTD4).

This is an account of results in ChEMBL document CHEMBL1149982, “Synthesis and in vitro profile of 7-substituted quinoline chromanols as novel, non-acidic LTB4 antagonists” (Bioorg Med Chem Lett, 1995).

Sequence of Leukotriene B4 receptor 1 (Q15722 whole entry): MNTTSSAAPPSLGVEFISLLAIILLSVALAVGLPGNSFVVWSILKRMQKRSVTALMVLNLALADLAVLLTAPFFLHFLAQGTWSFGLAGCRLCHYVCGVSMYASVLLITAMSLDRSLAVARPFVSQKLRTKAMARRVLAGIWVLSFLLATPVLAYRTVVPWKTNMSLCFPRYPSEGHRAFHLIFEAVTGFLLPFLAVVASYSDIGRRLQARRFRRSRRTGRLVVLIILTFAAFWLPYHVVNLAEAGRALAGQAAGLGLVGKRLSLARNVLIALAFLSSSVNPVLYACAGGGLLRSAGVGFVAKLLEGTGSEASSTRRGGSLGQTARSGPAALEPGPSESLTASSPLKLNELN

As for `CC(Oc1ccc2c(c1)OC[C@@H](Cc1ccccn1)[C@@H]2O)c1ccc2ccccc2n1` (stereo partly specified), the inhibition constant (Ki) was 0.24 µM in experiment [1] and greater than 50 µM in experiment [2].

With `C[C@H](Oc1ccc2c(c1)OC[C@@H](Cc1cccnc1)[C@@H]2O)c1ccc2ccccc2n1`, the Ki in experiment [1] was 1.9 µM; in experiment [2], greater than 50 µM.

As to `O[C@@H]1c2ccc(OCc3ccc4ccccc4n3)cc2OC[C@@H]1Cc1cccnc1`, the affinity in experiment [2], expressed as Ki, was 1.3 µM.

`O[C@@H]1c2ccc(OCc3ccc4ccccc4n3)cc2OC[C@H]1Cc1cccnc1`: in experiment [2], affinity was put at a Ki of 4.1 µM.

As for `CC(Oc1ccc2c(c1)OC[C@H](Cc1ccccn1)[C@@H]2O)c1ccc2ccccc2n1` (stereo partly specified), the Ki is 3.3 µM in experiment [1] and greater than 50 µM in experiment [2].

With `C[C@@H](Oc1ccc2c(c1)OC[C@@H](Cc1cccnc1)[C@@H]2O)c1ccc2ccccc2n1`, the Ki was 0.33 µM in experiment [1] and greater than 50 µM in experiment [2].

As for `O[C@@H]1c2cc(OCc3ccc4ccccc4n3)ccc2OC[C@@H]1Cc1cccnc1`, the Ki turned out to be 38 µM in experiment [1] and 1.6 µM in experiment [3].

Regarding `CC(Oc1ccc2c(c1)OC[C@H](Cc1cccnc1)[C@@H]2O)c1ccc2ccccc2n1` (stereo partly specified), the values for the Ki in experiment [1] and in experiment [2] were 5.2 µM and greater than 50 µM, respectively.

On to `O[C@@H]1c2cc(OCc3ccc4ccccc4n3)ccc2OC[C@H]1Cc1cccnc1`, for which the Ki in experiment [1] was found to be 16 µM; in experiment [2], 1 µM.
